Reference: PMC6178619, “Arylvinylpiperazine Amides, a New Class of Potent Inhibitors Targeting QcrB of Mycobacterium tuberculosis” (mBio, 2018)

Experiments:
Format in all cases: cell-based, Mycobacterium tuberculosis
[1] = tested on: AX-resistant mutants of M. tuberculosis H37Rv
[2] = tested on: H37Rv Δcyd KO with a QcrB(A317V) mutation
[3] = tested on: AX-resistant mutants of M. tuberculosis H37Rv (QcrB S182P, M342V, M342I)
[4] = tested on: Q203-resistant strain of M. tuberculosis H37Rv (QcrB T313A)
[5] = tested on: LPZS-resistant strain of M. tuberculosis H37Rv (QcrB L176P)

Row | SMILES | Intracellular ATP level [1] | OCR change from basal on compound addition [2] | Increase in MIC compared to parental strain H37Rv [3] [fold] | Cross-resistance [4] | Cross-resistance [5]
1 | CCc1nc2ccc(Cl)cn2c1C(=O)NCc1ccc(N2CCC(c3ccc(OC(F)(F)F)cc3)CC2)cc1 [Compound Q203, reference compound] | depleted | unaffected |  |  | 
2 | O=C(/C=C/c1ccsc1)N1CCN(Cc2ccc3c(c2)OCO3)CC1 [AX-36, (E)-1-(4-(Benzo[d][1,3]dioxol-5-ylmethyl)piperazin-1-yl)-3-(thiophen-3-yl)prop-2-en-1-one] | essentially unaffected |  | 50 | cross-resistant | cross-resistant
3 | COc1nc2ccc(Br)cc2cc1[C@@H](c1ccccc1)[C@@](O)(CCN(C)C)c1cccc2ccccc12 [BDQ, bedaquiline, reference compound] | depleted |  |  |  | 
4 | O=C(/C=C/c1cccs1)N1CCN(Cc2ccc3c(c2)OCO3)CC1 [AX-35, (E)-1-(4-(Benzo[d][1,3]dioxol-5-ylmethyl)piperazin-1-yl)-3-(thiophen-2-yl)prop-2-en-1-one] | essentially unaffected | decreases | 50 | cross-resistant | cross-resistant
